Drawing on patent US7718647B2, “Substituted azepine derivatives as serotonin receptor modulators” (Athersys, Inc., priority 2004, dated 2010), this text covers EC50 for one molecule.

By pEC50 is commonly meant the negative decadic logarithm of the EC50, by convention in mol/L.

The target in this assay is T1, human 5HT2c receptor (Homo sapiens, UniProt P28335, I156V/I160V, form not given).
T1 sequence (P28335 1-458 I156V/N158S/I160V): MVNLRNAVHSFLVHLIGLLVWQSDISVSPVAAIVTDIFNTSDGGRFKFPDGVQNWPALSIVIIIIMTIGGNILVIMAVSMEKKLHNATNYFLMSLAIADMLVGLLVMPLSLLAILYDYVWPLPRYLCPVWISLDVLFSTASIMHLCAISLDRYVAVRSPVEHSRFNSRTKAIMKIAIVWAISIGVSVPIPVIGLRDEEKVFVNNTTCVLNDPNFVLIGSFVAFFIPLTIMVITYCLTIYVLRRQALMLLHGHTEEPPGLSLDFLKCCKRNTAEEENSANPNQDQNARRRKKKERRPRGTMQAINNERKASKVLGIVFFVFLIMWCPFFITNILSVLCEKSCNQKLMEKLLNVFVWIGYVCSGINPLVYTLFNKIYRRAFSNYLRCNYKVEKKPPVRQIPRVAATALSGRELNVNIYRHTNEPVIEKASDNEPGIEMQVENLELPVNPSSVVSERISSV
In words: Calcium mobilization (FLIPR) 5HT2c receptor agonist assay in HEK 293 EBNA cells. It is filed as cell-based. Particulars: agonist-stimulated calcium release, HEK 293 EBNA cells expressing human 5HT2c receptor, read-out: 5-HT2c EC50 (hVSV).

pEC50: −log10 of the molar value.

`Brc1cc2c(o1)CCNCC2` [Example 49, 2-Bromo-5,6,7,8-tetrahydro-4H-furo[2,3-d]azepine]: the pEC50 is greater than 6.00.
